Article PMC4490465 (2015)

How the values were obtained:
[1] = system: 3 bp mismatch (DNA, hairpin) CAGTCATGAGCATGGATGCGGAAAAACCGCATCCATGCTCATGACTG; experiment: SPR, steady state, 1:1 fit; conditions: HBS-EP + 0.1% DMSO, pH 7.4, 25 °C
[2] = system: Cognate DNA sequence (DNA, hairpin) CGCATATGGTATGTGCCGCGGAAAAACCGCGGCACATACCATATGCG; experiment: SPR, steady state, 1:1 fit; conditions: HBS-EP + 0.1% DMSO, pH 7.4, 25 °C

## CC(=O)Nc1cn(C)c(C(=O)Nc2cn(C)c(C(=O)Nc3cc(C(=O)Nc4cc(C(=O)NCCCC(=O)Nc5cc(C(=O)Nc6cc(C(=O)Nc7cc(C(=O)Nc8cc(C(=O)NCCC(=O)NCCCN(C)C)n(C)c8)n(C)c7)n(C)c6)n(C)c5)n(C)c4)n(C)c3)n2)n1
[1]
  Kd: 314 ± 160 nM
[2]
  Kd: 1.6 ± 0.1 nM

## CN(C)CCCNC(=O)CCNC(=O)c1cc(NC(=O)c2cc(NC(=O)c3cc(NC(=O)c4cc(NC(=O)CCCNC(=O)c5cc(NC(=O)c6cc(NC(=O)c7nc(NC(=O)c8nc(NC(=O)CCOCCOCCOCCNC(=O)[C@@H](N)CSSC(C)(C)C)cn8C)cn7C)cn6C)cn5C)cn4C)cn3C)cn2C)cn1C
[2]; apparent
  Kd: 9.3 ± 1.6 nM
